Laboratory results published in patent publication US4246413A, “6-Oxamorphinans” (priority 1979, dated 1981).

Assays:
[1] = type: in vivo
[2] = oxymorphone-induced Straub tail test for antagonist activity; type: in vivo

Row | Compound | Agonist Activity ED50, Mice (SC) [1] [mg/kg] | Agonist Activity ED50, Mice (PO) ([1]; PO) [mg/kg] | times as potent as morphine sulfate, orally ([1]; mice, oral, relative to morphine sulfate) | ED50 ([2]; sc, read-out: subcutaneous ED50, antagonist activity) [mg/kg] | times the antagonist activity of butorphanol ([2]; subcutaneous, relative to butorphanol)
1 | COc1ccc2c(c1)[C@]13CCN(C)[C@H](C2)[C@@H]1CC(C)(C)OC3.Cl (racemic) [BL-6028, 3-Methoxy-7,7,17-trimethyl-6-oxamorphinan Hydrochloride] | 0.053 | – | – | – | –
2 | CN1CC[C@]23COC(C)(C)C[C@H]2[C@H]1Cc1ccc(O)cc13 (racemic) [BL-6092, 3-Hydroxy-7,7,17-trimethyl-6-oxamorphinan] | 0.038 | – | – | – | –
3 | CC1(C)C[C@H]2[C@H]3Cc4ccc(O)cc4[C@@]2(CCN3CC2CC2)CO1.Cl (racemic) [BL-6097, 17-Cyclopropylmethyl-7,7-dimethyl-3-hydroxy-6-oxamorphinan Hydrochloride] | 0.083 | 0.35 | about 8.9 times | 0.8 | about 1.2 times
